Test results reported in patent US10669258B2, “3-sulfonyl-5-aminopyridine-2,4-diol APJ agonists” (BRISTOL-MYERS SQUIBB COMPANY, priority 2016, dated 2020).
Like-named read-outs stand apart in the source and are kept apart here.

Biological target: T1, human APJ receptor (Homo sapiens, UniProt P35414)
T1 construct: expressed in transfected cells; host or cells: HEK293
T1 sequence (P35414 1-380): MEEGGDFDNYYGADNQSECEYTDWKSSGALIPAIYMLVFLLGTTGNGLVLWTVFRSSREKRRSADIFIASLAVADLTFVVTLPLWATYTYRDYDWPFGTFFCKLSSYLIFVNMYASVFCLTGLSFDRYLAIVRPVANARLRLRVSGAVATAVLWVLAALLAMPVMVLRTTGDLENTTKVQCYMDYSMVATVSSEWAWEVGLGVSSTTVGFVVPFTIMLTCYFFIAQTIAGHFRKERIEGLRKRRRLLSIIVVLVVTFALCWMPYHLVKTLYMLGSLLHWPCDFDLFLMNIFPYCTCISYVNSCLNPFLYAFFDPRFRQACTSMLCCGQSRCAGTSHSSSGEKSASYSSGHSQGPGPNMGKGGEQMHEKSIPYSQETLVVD
Assay: Intracellular cAMP accumulation assay (APJ hcAMP, HTRF)
Assay type: cell-based
Conditions: HEK293 cells stably expressing human APJ receptor, inhibition of forskolin-mediated cAMP production
Summary of the method: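 Inhibition of forskolin (2 μM)-driven cAMP, with […], measured by HTRF after 30 min room-temperature compound exposure of stably transfected HEK293 cells. cAMP read from a standard curve; variable-slope fit gives EC50, and maximal inhibition is normalised to (Pyr1)apelin-13 as 100%.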

[1] = Table 1, read-out: hAPJ cAMP EC50 Potency range
[2] = read-out: hAPJ cAMP EC50 Potency range, Table 1
[3] = Table 2, read-out: hAPJ cAMP EC50 Potency range

EC50 [1] [nM]	Structure (SMILES)	also measured
10 to 100	CCCCc1nc(O)c(S(=O)(=O)c2ccc(-c3cccnc3C)cc2)c(O)c1N(C)c1ccccc1C [Example 194, 6-butyl-5-(methyl(o-tolyl)amino)-3-((4-(2-methylpyridin-3-yl)phenyl)sulfonyl)pyri-dine-2,4-diol]	
0.01 to 10	CCCCc1nc(O)c(S(=O)(=O)c2ccc(-c3ccncc3C)cc2)c(O)c1N1CCCc2ccccc21 [Example 022, 6-butyl-5-(3,4-dihydroquinolin-1(2H)-yl)-3-((4-(3-methylpyridin-4-yl)phenyl)sulfonyl)pyridine-2,4-diol]	
0.01 to 10	CCCCc1nc(O)c(S(=O)(=O)c2ccc(-n3cc(C)ccc3=O)cc2)c(O)c1N(C)c1ccc(C)cc1 [Example 098, 1-(4-((6-butyl-2,4-dihydroxy-5-(methyl(p-tolyl)amino)pyridin-3-yl)sulfonyl)phenyl)-5-methylpyridin-2(1H)-one]	
0.01 to 10	CCCCc1nc(O)c(S(=O)(=O)c2ccc(-c3ccnc(F)c3C)cc2)c(O)c1N1CCCCc2ccccc21 [Example 180, 6-butyl-3-((4-(2-fluoro-3-methylpyridin-4-yl)phenyl)sulfonyl)-5-(2,3,4,5-tetrahydro-1H-benzo[b]azepin-1-yl)pyridine-2,4-diol]	
0.01 to 10	CCCCc1nc(O)c(S(=O)(=O)c2ccc(-c3ccccc3C(=O)N(C)C)cc2)c(O)c1N(CC)c1cccc(C#N)c1 [Example 186, 4′-((6-butyl-5-((3-cyanophenyl)(ethyl)a-mino)-2,4-dihydroxypyridin-3-yl)sulfonyl)-N,N-dimethyl-[1,1′-biphenyl]-2-carboxamide]	
0.01 to 10	CCN(c1ccccc1)c1c(CC2CC2)nc(O)c(S(=O)(=O)c2ccc(-c3ccccc3C(=O)NC)cc2)c1O [Example 055, 4′-((6-(cyclopropylmethyl)-5-(ethyl(phenyl)amino)-2,4-dihydroxypyridin-3-yl)sulfonyl)-N-methyl-[1,1′-biphenyl]-2-carboxamide]	
10 to 100	CCCCc1nc(O)c(S(=O)(=O)c2ccc(Br)cc2)c(O)c1N(CC)c1cc(C)cc(C)c1 [Example 134, 3-((4-bromophenyl)sulfonyl)-6-butyl-5-((3,5-dimethylphenyl)(ethyl)amino)pyridine-2,4-diol]	
0.01 to 10	CCCCc1nc(O)c(S(=O)(=O)c2ccc(-n3cc(Cl)ccc3=O)cc2)c(O)c1N(C)c1ccccc1 [Example 018, 1-(4-((6-butyl-2,4-dihydroxy-5-(methyl(phenyl)amino)pyridin-3-yl)sulfonyl)phenyl)-5-chloropyridin-2(1H)-one]	
0.01 to 10	CCCCc1nc(O)c(S(=O)(=O)c2ccc(-c3cccnc3C)cc2)c(O)c1N(C)c1cccc(C#N)c1 [Example 119, 3-((2-butyl-4,6-dihydroxy-5-((4-(2-methylpyridin-3-yl)phenyl)sulfonyl)pyridin-3-yl)(methyl)amino)benzonitrile]	
10 to 100	CCCCc1nc(O)c(S(=O)(=O)c2ccc(-c3cccnc3C)cc2)c(O)c1N1CCCOc2ccccc21 [Example 123, 6-butyl-5-(3,4-dihydrobenzo[b][1,4]oxazepin-5(2H)-yl)-3-((4-(2-methylpyridin-3-yl)phenyl)sulfonyl)pyridine-2,4-diol]	
0.01 to 10	CCCCc1nc(O)c(S(=O)(=O)c2ccc(-c3ccccc3C(=O)N(C)C)cc2)c(O)c1N(C)c1cccc(C#N)c1 [Example 139, 4′-((6-butyl-5-((3-cyanophenyl)(methyl)amino)-2,4-dihydroxypyridin-3-yl)sulfonyl)-N,N-dimethyl-[1,1′-biphenyl]-2-carboxamide]	
	CCCCc1nc(O)c(C(=O)N2CC[C@@H](c3ccccc3)C2)c(O)c1N(C)c1ccc(OC)cc1 [Example 036, (S)-(6-butyl-2,4-dihydroxy-5-((4-methoxyphenyl)(methyl)amino)pyridin-3-yl)(3-phenylpyrrolidin-1-yl)methanone]	EC50 (hAPJ cAMP EC50 Potency range, Table 1): 10 to 100 nM
10 to 100	CCCCc1nc(O)c(S(=O)(=O)c2ccc(-c3ccc(F)nc3C)cc2)c(O)c1N(C)c1cccc(OC)c1 [Example 030, 6-butyl-3-((4-(6-fluoro-2-methylpyridin-3-yl)phenyl)sulfonyl)-5-((3-methoxyphenyl)(methyl)amino)pyridine-2,4-diol]	
0.01 to 10	CCCCc1nc(O)c(S(=O)(=O)c2ccc(-c3ccnc(F)c3C)cc2)c(O)c1N(C)c1cccc(F)c1 [Example 106, 6-butyl-3-((4-(2-fluoro-3-methylpyridin-4-yl)phenyl)sulfonyl)-5-((3-fluorophenyl)(methyl)amino)pyridine-2,4-diol]	
	CCCCc1nc(O)c(C(=O)N2CCC(c3ncc(Cl)cc3F)C2)c(O)c1N(CC)c1ccccc1 (stereo not shown) [Example 072, (6-butyl-5-(ethyl(phenyl)amino)-2,4-dihydroxypyridin-3-yl)(3-(5-chloro-3-fluoropyridin-2-yl)pyrrolidin-1-yl)methanone]	EC50 [2]: 0.01 to 10 nM
0.01 to 10	CCN(c1cccc(C#N)c1)c1c(-c2ccn(C)n2)nc(O)c(S(=O)(=O)c2ccc(-c3ccccc3C(N)=O)cc2)c1O [Example 216, 4′-((5-((3-cyanophenyl)(ethyl)ami-no)-2,4-dihydroxy-6-(1-methyl-1H-pyrazol-3-yl)pyridin-3-yl)sulfonyl)-[1,1′-biphenyl]-2-carboxamide]	
	CCN(c1ccccc1)c1c(-c2ccn(C)n2)nc(O)c(C(=O)N2CCC(c3ccc(F)cc3F)C2)c1O (stereo not shown) [Example 207, (3-(2,4-difluorophenyl)pyrrolidin-1-yl)(5-(ethyl(phenyl)amino)-2,4-dihydroxy-6-(1-methyl-1H-pyrazol-3-yl)pyridin-3-yl)methanone]	EC50 [3]: 0.01 to 10 nM
0.01 to 10	CCCCc1nc(O)c(S(=O)(=O)c2ccc(-c3ccncc3C)cc2)c(O)c1N(c1ccccc1)C(C)C [Example 027, 6-butyl-5-(isopropyl(phenyl)amino)-3-((4-(3-methylpyridin-4-yl)phenyl)sulfonyl)pyridine-2,4-diol]	
	CCCCc1nc(O)c(C(=O)N2CCC(c3ncc(F)cc3F)C2)c(O)c1N(CC)c1ccccc1 (stereo not shown) [Example 073, (6-butyl-5-(ethyl(phenyl)amino)-2,4-dihydroxypyridin-3-yl)(3-(3,5-difluoropyridin-2-yl)pyrrolidin-1-yl)methanone]	EC50 [2]: 0.01 to 10 nM
0.01 to 10	CCCCc1nc(O)c(S(=O)(=O)c2ccc(-c3ccncc3C)cc2)c(O)c1N(CC)c1cc(C)cc(C)c1 [Example 133, 6-butyl-5-((3,5-dimethylphenyl)(ethyl)amino)-3-((4-(3-methylpyridin-4-yl)phenyl)sulfonyl)pyridine-2,4-diol]	
0.01 to 10	CCCCc1nc(O)c(S(=O)(=O)c2ccc(-c3cccnc3C)cc2)c(O)c1N(CC)c1ccccc1 [Example 079, 6-butyl-5-(ethyl(phenyl)amino)-3-((4-(2-methylpyridin-3-yl)phenyl)sulfonyl)pyridine-2,4-diol]	
0.01 to 10	CCN(c1ccccc1)c1c(CC2CC2)nc(O)c(S(=O)(=O)c2ccc(-c3ccccc3C(N)=O)cc2)c1O [Example 147, 4′-((6-(cyclopropylmethyl)-5-(ethyl(phenyl)amino)-2,4-dihydroxypyridin-3-yl)sulfonyl)-[1,1′-biphenyl]-2-carboxamide]	
	CCN(c1ccccc1)c1c(-c2ccn(C)n2)nc(O)c(C(=O)N2CCC(c3ccc(Cl)cn3)C2)c1O (stereo not shown) [Example 200, (3-(5-chloropyridin-2-yl)pyrrolidin-1-yl)(5-(ethyl(phenyl)amino)-2,4-dihydroxy-6-(1-methyl-1H-pyrazol-3-yl)pyridin-3-yl)methanone]	EC50 [3]: 0.01 to 10 nM
0.01 to 10	CCCCc1nc(O)c(S(=O)(=O)c2ccc(-c3ccccc3C(=O)NC3CC3)cc2)c(O)c1N(C)c1ccccc1C [Example 208, 4′-((6-butyl-2,4-dihydroxy-5-(methyl(o-tolyl)amino)pyridin-3-yl)sulfonyl)-N-cyclopropyl-[1,1′-biphenyl]-2-carboxamide]	
0.01 to 10	CCCCc1nc(O)c(S(=O)(=O)c2ccc(-c3ccccc3C(=O)N(C)C)cc2)c(O)c1N(C)c1ccccc1C [Example 196, 4′-((6-butyl-2,4-dihydroxy-5-(methyl(o-tolyl)amino)pyridin-3-yl)sulfonyl)-N,N-dimethyl-[1,1′-biphenyl]-2-carboxamide]	
0.01 to 10	CCCCc1nc(O)c(S(=O)(=O)c2ccc(-c3ccccc3C(N)=O)cc2)c(O)c1N(C)c1ccccc1C [Example 195, 4′-((6-butyl-2,4-dihydroxy-5-(methyl(o-tolyl)amino)pyridin-3-yl)sulfonyl)-[1,1′-biphenyl]-2-carboxamide]	
0.01 to 10	CCCCc1nc(O)c(S(=O)(=O)c2ccc(-c3ccncc3C)cc2)c(O)c1N(C)c1ccc(Cl)cc1 [Example 108, 6-butyl-5-((4-chlorophenyl)(methyl)amino)-3-((4-(3-methylpyridin-4-yl)phenyl)sulfonyl)pyridine-2,4-diol]	
0.01 to 10	CCCCc1nc(O)c(S(=O)(=O)c2ccc(-c3ccncc3C)cc2)c(O)c1N(C)c1cccc(C#N)c1 [Example 113, 3-((2-butyl-4,6-dihydroxy-5-((4-(3-methylpyridin-4-yl)phenyl)sulfonyl)pyridin-3-yl)(methyl)amino)benzonitrile]	
